In the test the test system is dog kidney Na⁺K⁺ATPase. In words: ³H-ouabain radioreceptor assay. Type of test: binding. Particulars: 10⁻⁴M concentrations. How it is done:
The linked-enzyme, spectrophotometric assay measuring hydrolysis of ATP was performed as described in Example 1. The ³H-ouabain radioreceptor assay was performed in 0.5 ml of 50 mM Tris HCl (pH 7.4) containing 0.5 mM EDTA, 4 mM MgSO₄, 80 mM NaCl, 5mM ATP, 7.5 ug of dog kidney Na⁺K⁺ATPase (Sigma), 7.8 nCi of [21, 22-³H]-ouabain (specific activity = 15.6 Ci/mmol; Amersham), and 0.1% gelatin. Test samples were incubated for 2 hr at 37°C; ATP and ³H-ouabain were absent during the first hour but present during the second hour. The glycopeptide 1-39 used in these experiments was isolated to homogeneity as described in Fig. 6; eOLP refers to the partially purified, endogenous ouabain-like substance described in the text, and its amounts are expressed as ul of acetonitrile/TFA. Samples of these preparations, both in acetonitrile/0.1% trifluoroacetic acid, were evaporated under a stream of nitrogen gas and redissolved in 0.1% gelatin in preparation for assay. ³H-ouabain bound to Na⁺K⁺ATPase was recovered on Whatman GF/F glass microfiber filters using vacuum filtration. The filters had been soaked in 0.3% aqueous polyethylenimine for 2 hr immediately before filtration. The filters were added to scintillation fluid in vials and counted in a liquid scintillation spectrometer. […]

lysine vasopressin: the “displacing activity in the ³H-ouabain radioreceptor assay” value is given as “no displacing activity”.

oxytocin: the “displacing activity in the ³H-ouabain radioreceptor assay” value is reported as “no displacing activity”.

(Values after patent EP0331184A2, “Peptide equivalents of non-peptides and methods of design therefor” (THE BOARD OF TRUSTEES OF THE UNIVERSITY OF ALABAMA FOR ITS …, priority 1988, dated 1989).)
